Assay results published in patent publication US7592332B2, “Cytokine inhibitors” (Boehringer Ingelheim Pharmaceuticals, Inc., priority 2004, dated 2009).
Counter-ions that a name gives are not always drawn.

| Compound | melting point |
| --- | --- |
| COc1cnc(C(C)(C)C)cc1NC(=O)c1cc2cccc(Oc3ccnc(N4CCN(C)CC4)n3)c2n1C (as salt: salt) [Example 2, 1-methyl-7-[2-(4-methyl-piperazin-1-yl)-pyrimidin-4-yloxy]-1H-indole-2-carboxylic acid (2-tert-butyl-5-methoxy-pyridin-4-yl)-amide] | 72 to 74 °C (dec.) |
| Cn1c(C(=O)Nc2cc(C(C)(C)C)ccc2[S+](C)[O-])cc2cccc(Oc3ccncc3)c21 (stereo not drawn) [Example 3, 1-methyl-7-(pyridine-4-yloxy)-1H-indole-2-carboxylic acid (5-tert-butyl-2-methanesulfinyl-phenyl)-amide] | 88 to 92 °C (dec.) |
| Cn1c(C(=O)Nc2cc(C(C)(C)C)ccc2S(C)(=O)=O)cc2cccc(Oc3ccncc3)c21 [Example 4, 1-methyl-7-(pyridine-4-yloxy)-1H-indole-2-carboxylic acid (5-tert-butyl-2-methanesulfonyl-phenyl)-amide] | 158 to 159 °C (dec.) |
| Cn1c(C(=O)Nc2cc(C(C)(C)C)c[nH]c2=O)cc2cccc(Oc3ccncc3)c21 [Example 5, 1-methyl-7-(pyridine-4-yloxy)-1H-indole-2-carboxylic acid (5-tert-butyl-2-oxo-1,2-dihydropyridin-3-yl)-amide] | 236 to 238 °C (dec.) |
| Cn1cc(C(C)(C)C)cc(NC(=O)c2cc3cccc(Oc4ccncc4)c3n2C)c1=O [Example 6, 1-methyl-7-(pyridine-4-yloxy)-1H-indole-2-carboxylic acid (5-tert-butyl-1-methyl-2-oxo-1,2-dihydropyridin-3-yl)-amide] | 74 to 76 °C (dec.) |
| Cc1ncc(C(C)(C)C)cc1NC(=O)c1cc2cccc(Oc3ccncc3)c2n1C [Example 7, 1-methyl-7-(pyridine-4-yloxy)-1H-indole-2-carboxylic acid (5-tert-butyl-2-methyl-pyridin-3-yl)-amide] | 52 to 56 °C (dec.) |
